Publication PMC13252604, “First Generation Proteolysis Targeting Chimeras (PROTACs) for the Treatment of Progeria” (Advanced Science, 2026)

Test system: HGADFN167 Lmna^G608G/G608G fibroblasts
Test: Senescence-associated β-galactosidase activity in human progeroid cells
Format: cell-based
Settings: HGADFN167, 5 µM, 20 days
Text: FIGURE 6 (A) Representative cropped immunoblots and progerin quantification in human Lmna^G608G/G608G fibroblasts. MW, molecular weight (in kDa) markers. […] (B) PROTAC 2 increases cell proliferation (upper panels) and decreases the number of misshapen nuclei (lower panels). White arrows highlight selected misshapen nuclei. (C) PROTAC 2 decreases senescence‐associated β‐galactosidase (SA‐βgal) activity, interleukin (IL) 6, p16 and p21 senescent markers. Bar graphs show mean±sem of 2 (SA‐βgal and p21) or 3 (IL‐6 and p16) independent experiments performed in triplicate. (D) PROTAC 2 decreases phosphorylated histone 2AX (pH2AX) and increases trimethylated histone 3 (H3K9Me3) levels. (E) PROTAC 2 increases the oxygen consumption rate (OCR), ATP production and the number of healthy mitochondria in human progeroid cells. […] Data were analysed using one‐way ANOVA followed by Dunnett's post–hoc test vs vehicle (panel A) or vs G608G cells (panels B‐E). ^*, p < 0.05; ^**, p < 0.01; ^***, p < 0.001; ^****, p < 0.0001. […]
compound exposure. […] Samples were analysed by electrophoresis in polyacrylamide gels (All Kd SDS-PAGE, BioRad) and the proteins transferred to nitrocellulose membranes (GE Healthcare, Amersham). […]
GAPDH (Cell Signaling, 2118S, 1:5000) and anti-actin (Santa Cruz Biotechnology, sc-376248, 1:500) as antibodies for loading control. […] The bands were quantified by densitometry using the […]

SMILES: CC1(C)Oc2cc3oc(=O)ccc3cc2C[C@@H]1OC(=O)CCCCCNc1cccc2c1C(=O)N(C1CCC(=O)NC1=O)C2=O (stereo partly shown) [compound 2]
- SA‐βgal senescent marker: significantly reduced
